Laboratory results taken from patent publication US8945595B2, “Insect repellent and attractants” (The Regents of the University of California, priority 2009, dated 2015).

What was measured:
[1] = test system: CO2 sensitive A neuron of peg sensillum; assay: activation of CO2 sensitive neuron with a volatile odorant; type: cell-based, Aedes aegypti; settings: 1 sec puff, indicated dilution
Method: (§1) FIG. 2 depicts electrophysiology measurements of the peg sensillum on the mosquito maxillary palp. The palp, indicated in brown in the schematic of the mosquito head, has several peg sensilla. Each peg sensilla (grey club-like structure in the center) contains three olfactory neurons A, B and C as indicated, of which the ‘A’ neuron gives a robust and specific increase in frequency of action potentials in response to a stimulus of CO2. Extracellular single-unit recordings are performed by inserting a glass microelectrode into the peg sensilla, and puffing an odor such as CO2 towards the mosquito maxillary palps. The signal is amplified to obtain the trace of action potentials.
(§2) (a) Action potential traces from the peg sensillum of the maxillary palp show spike amplitudes from three neurons, where the spikes with the largest amplitude belongs to the CO2 sensitive A neuron. (b) 1 sec of the indicated dilution 2,3-butanedione is puffed to Aedes aegypti. (c) 1 sec of indicated odor is puffed to Anopheles gambiae. (d) butanone and (e) 2,3-butanedione are given to Culex quinquefasciatus at the indicated concentrations. PO=paraffin oil. n=5. Baseline activity subtracted. Error bars indicate SEM.

[2] = test system: CO2 sensitive A neuron of peg sensillum; assay: as above; type: cell-based, Culex quinquefasciatus; settings: indicated concentrations
Method: as §1, §2

Structure (SMILES): CC(=O)C(C)=O [2,3-butanedione]
- activation of CO2 sensitive neuron [1]: activation
- activation of CO2 sensitive neuron [2]: activation
